Where two headings read alike, the source gives them in different places.
Key:
C57Bl/6 mice = experiment: Cisplatin CIPN model, von Frey test; assay type: in vivo, mouse
Experimental: Cisplatin, a platinum-based chemotherapy agent has been used to reduce pain thresholds in a model of CIPN. Effects of acute (single higher dose) or sub-chronic (7 days repeated lower dose) 2C-B on pain thresholds were investigated in cisplatin-treated animals compared with vehicle or cisplatin-treated controls.
Methods: Male C57Bl/6 mice aged 12-16 weeks were used. Cisplatin (2.5 mg/kg) or vehicle was administered on days 1-5 and 11-15.
Vehicle, sub-chronic 2C-B (5 mg/kg once daily days 17-23) or acute 2C-B (20 mg/kg once on day 17) was then administered IP (N=16-18/group). VonFrey testing took place on day 17 (30 min post-dose) and days 21 and 24 (pre-dose) to monitor the effects of 2C-B in cisplatin treated animals, compared with animals receiving cisplatin+vehicle or vehicle+vehicle.
For von Frey measurements, animals were placed into wire bottom cubicles with opaque Plexiglas walls, allowing access to the underside of their paws. Animals were habituated to this environment for at least 30 minutes before the start of the von Frey filament application. Static allodynia was measured using Semmes-Weinstein von Frey filaments (Stoelting, Wood Dale, IL). Mechanical allodynia was tested by touching the plantar surface of the animals' right and left hind paws with von Frey filaments which deliver a calibrated amount of force (0.07, 0.16, 0.4, 0.6. 1.0, 2.0, 4.0, 6.0 g). […]

Sprague Dawley rats [1] = experiment: Forced Swim Test (FST); assay type: in vivo, rat
Description: The Forced Swim Test (FST) is a classic, and the most used preclinical behavioral assay to screen compounds with antidepressant-like activity and has high predictive and face validity (Porsolt et al. (1977) Nature 266:730; Borsini and Meli (1988) Psychopharmacology 94:147). The premise of the FST is that when rats are placed into a cylinder filled with water, they will initially try to escape, but over time will become immobile. This increased immobility reflects behavioral despair, modeling a depressive-like state.
Forced Swim Test (FST): In the FST trial, rats were placed in a circular plexiglass container filled with water, with no means of escape. Water temperature was maintained at 22-25° C. and changed for every animal. After an acclimation period, rats were timed for inactivity (failure to struggle), activity, swim time and climbing time. Day 1 consisted of a 15 min acclimation trial, and Day 2 (24 h later) consisted of the 5 min test. A time sampling procedure was employed where animals were observed every 5 sec and scored for immobility, swimming, or climbing. Fluoxetine (10 mg/kg, IP, Sigma Aldrich) or 0.9% sterile saline vehicle (vehicle 3X group) were administered 23.5, 5, and 1 h before testing in the FST. […] The experimenter was blinded to treatment.
Forced Swim Test: In the FST trial, rats were placed in a circular plexiglass container filled with water, with no means of escape. Water temperature was maintained at 22-25° C. and changed for every animal. After an acclimation period, rats were timed for inactivity (failure to struggle), activity, swim time and climbing time. Day 1 consisted of a 15 min acclimation trial, and Day 2 (24 h later) consisted of the 5 min test. A time sampling procedure was employed where animals were observed every 5 sec and scored for immobility, swimming, or climbing. Fluoxetine (10 mg/kg, IP, Sigma Aldrich) or 0.9% sterile saline vehicle (vehicle 3X group) were administered 23.5, 5, and 1 h before testing in the FST. 2C-B (2.5, 10, or 20 mg/kg, IP, Cayman Chemical) or 0.9% saline vehicle (vehicle 1X group) were administered 30 min prior to FST testing. The experimenter was blinded to treatment.
Drug Treatment: Fluoxetine (10 mg/kg, IP, Sigma Aldrich) or 0.9% sterile saline vehicle were administered 23.5, 5, and 1 h before testing in the FST. […] Control animals received fluoxetine alone, methylone alone, or saline vehicle.
Forced Swim Test: In the FST trial, rats were placed in a circular plexiglass container filled with water, with no means of escape. Water temperature was maintained at 22-25° C. and changed for every animal. After an acclimation period, rats were timed for inactivity (failure to struggle), activity, swim time and climbing time. The experimenter and scorer were blind to treatment group. Day 1 consisted of a 15 min acclimation trial, and Day 2 (24 h later) consisted of the 5 min test. A time sampling procedure was employed where animals were observed every 5 sec and scored for immobility, swimming, or climbing.
The FST was performed and scored by an experimenter blind to treatment group according to standard protocols and based on a “modified FST” procedure (Slattery and Cryan (2012) Nat Protoc, 7:1009). Briefly, rats were placed in a circular plexiglass container (29.2 cm diameter, 49.5 cm height) filled with water to a depth of 30 cm so rats could not support themselves by touching the bottom of the tank. Water was maintained at 22-25° C. and was changed for every animal. Day 1 (Training) consisted of a 15 min acclimation trial, and Day 2 (Testing, 24 h later) consisted of the 5 min test. A time sampling procedure was employed where animals were observed every 5 seconds for the duration of the test session (60 counts or 5 minutes) and scored for immobility (defined as the failure to struggle), swimming (defined as a circular movement around the tank), or climbing (defined as an upwards escape behavior). […]

experienced drug users = settings: cited from earlier work
Sprague Dawley rats [2] = settings: previous literature reports (Hibicke 2020; Yang 2013; Tizabi 2012); cited from earlier work
C57BL/6J mice = experiment: Fear extinction paradigm (PTSD mouse model); assay type: in vivo; settings: MBDB 5 mg/kg IP, day 2
Description: Effective PTSD treatments facilitate the disassociation between a traumatic memory and the patient's fear response, making cues for the traumatic memory evoke less of a fear response. This is modeled in the mouse fear extinction paradigm (see FIG. 9A) which takes place over 3 days. On day 1 (fear conditioning), mice are trained to acquire a “traumatic memory,” namely associating the conditioned stimulus (CS, tone) to the unconditioned stimulus (US, foot shock). On day 2 (extinction training), they are trained to forget the traumatic memory association by presenting the CS 6 times (with no US) in a novel environment. On day 3 (extinction recall), the mice are “asked” if that tone (CS) still elicits a fearful response, as measured by the time spent freezing when the tone is presented. Less time freezing means better extinction recall. Drugs that improve extinction recall reduce freezing time on day 3, and, therefore, show potential as a PTSD treatment.
Methods: Cued fear conditioning was performed in C57BL/6J mice. On day 1, animals were placed in the chambers and presented with a training session (CS-US pairing). The training consisted of a 2-minute habituation followed by a 30-second, 80 dB tone; during the last 2 seconds of the tone animals received a 1 mA foot shock. This US-CS procedure occurred once for a total of one paired presentation of tone and shock. Freezing behavior (immobility) was recorded in 5-10-see intervals during the session. Percent baseline freezing behavior was determined in the 2-minute habituation period. On day 3, animals were placed in context B, in which tactile and odor cues differed from context A. Following a 2 minute acclimation period animals received 4×30 sec presentations of the CS (tone) in the absence of the US (footshock), with a 45 sec interval between presentations. Freezing was recorded in 5-10-see intervals to measure baseline freezing response to the altered context, and freezing response to each tone cue presentation. […] On day 4 (Post-Extinction Testing in Drug-Free State), animals were placed in Context B. Following a 2 min acclimation period, animals received 4×30 sec extinction tone duration presentations of the CS (tone) in the absence of the US (footshock), with a 45 sec interval between presentations. Freezing was recorded in 5-10-see intervals to measure baseline freezing response to the altered context, and freezing response to each tone cue presentation.

[3] = test system: serotonergic terminals in the cortex and hippocampus; settings: (±)-MBDB.HCl 25 mg/kg IP every 12 hours for 4 days, 2 weeks post-treatment; cited from earlier work
[4] = biological target: T1, Human serotonin 5HT2B receptor (Homo sapiens, UniProt P41595); experiment: 5HT2B competitive radioligand binding; settings: ratio of Ki values
T1 construct: host or cells: receptor-expressing membranes
Experimental: Human serotonin 5HT2B receptor membrane preparations were divided into aliquots. On the day of the assay, membranes were diluted at 1:200 in incubation buffer. […] To each well was added 150 μL membrane preparation, 50 μL test compound, non-specific compound, or buffer alone, as well as 50 μL radioligand. The plate was incubated at 35° C. for 90 minutes with gentle agitation. […] For each concentration of drug, non-specific binding was subtracted from total binding to give specific binding. […] Ki was subsequently calculated using the ChengPrusoff equation.

T1 sequence (P41595 whole entry): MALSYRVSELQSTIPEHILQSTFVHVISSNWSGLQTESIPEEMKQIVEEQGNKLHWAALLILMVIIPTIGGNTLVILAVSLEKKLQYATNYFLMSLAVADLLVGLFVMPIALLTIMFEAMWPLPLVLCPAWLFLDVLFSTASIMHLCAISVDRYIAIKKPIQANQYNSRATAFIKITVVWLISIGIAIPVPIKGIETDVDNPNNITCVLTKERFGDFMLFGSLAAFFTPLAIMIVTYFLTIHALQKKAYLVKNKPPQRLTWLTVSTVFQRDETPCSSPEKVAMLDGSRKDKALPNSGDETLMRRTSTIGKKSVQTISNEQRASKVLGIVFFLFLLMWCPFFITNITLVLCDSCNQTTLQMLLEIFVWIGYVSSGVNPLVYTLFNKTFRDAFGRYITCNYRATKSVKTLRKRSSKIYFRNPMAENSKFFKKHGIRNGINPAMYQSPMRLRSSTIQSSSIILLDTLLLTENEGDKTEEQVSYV

For COc1cc(CCN)c(OC)cc1Br [2C-B, 4-Bromo-2,5-dimethoxyphenethylamine], the “effect of repeated doses” value (C57Bl/6 mice; 5 mg/kg 2C-B once daily days 17-23) was “sustained beneficial effect”, the “pain thresholds in cisplatin-treated animals” value (C57Bl/6 mice; single dose 5 or 20 mg/kg IP, within 30 min, day 17) was “significantly increased” and the climbing (Sprague Dawley rats [1]; 2C-B high-dose group (20 mg/kg IP)) was “significantly decreased”. For the same compound, the swimming (Sprague Dawley rats [1]; 2C-B single dose IP 30 min before test) was “significant increase in swimming” and the adverse effects (experienced drug users; self-administered 2C-B, 10 to 20 mg) was “no serious adverse effects”.

For CCN(CC)C(=O)[C@@H]1C=C2c3cccc4[nH]cc(c34)C[C@H]2N(C)C1 [LSD, lysergic acid-N,N-diethylamide], the reduction in immobility (Sprague Dawley rats [2]) is given as 38%.

With CCC(Cc1ccc2c(c1)OCO2)NC (centres unmarked) [MBDB, N-methyl-1-(1,3-benzodioxol-5-yl)-2-aminobutane] the immobility (Sprague Dawley rats [1]; MBDB 5-30 mg/kg IP, 30 min before test) was “significantly reduced immobility”, the “extinction acquisition, first trial of extinction training” value (C57BL/6J mice) was “improved extinction acquisition” and the locomotor activity (C57BL/6J mice) was “small, but significant increase in locomotor activity”. For the same compound, the adverse effects (experienced drug users; self-administered MBDB, 100 to 300 mg) was “no serious adverse effects” and the “serotonergic terminals destroyed in the cortex and hippocampus” value [3] was 55-60%.

For CC(N)Cc1ccc2c(c1)OCO2 (centres unmarked) [MDA], the “times greater affinity for the 5HT2B receptor compared with methylone” value [4] was 37 times.

For CNCCC(Oc1ccc(C(F)(F)F)cc1)c1ccccc1 (centres unmarked) [fluoxetine, reference compound], the swimming behavior (Sprague Dawley rats [1]; Example 8, fluoxetine 10 mg/kg IP x3) was “significantly increased swimming behavior”.

For CN(C)CCc1c[nH]c2cccc(OP(=O)(O)O)c12 [psilocybin], the reduction in immobility (Sprague Dawley rats [2]) is given as 67%.
